# Results taken from patent US8518958B2, “Pyrido [2,3-D] pyrimidines and their use as kinase inhibitors” (Forma Therapeutics, Inc., priority 2006, dated 2013).
# Read-outs that look alike come from different tables or passages of the source.
# Key:
# [1] = tested on: HT-29 tumor cells; experiment: Anti-proliferative activity, SRB assay; type: cell-based, human; settings: 72 hours exposure, read-out: CELLULAR IC50 HT-29
# Method in brief: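 Cells at 3,000-15,000/well, plated 24 h before compound, exposed to a concentration range for 72 hours. Proliferation measured by SRB staining after cold TCA fixation, absorbance at OD570; IC50 estimated from % inhibition versus DMSO-treated cells.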
# [2] = biological target: B-Raf delta1-415 (Homo sapiens, UniProt P15056); experiment: B-Raf kinase inhibition (MAPH filter plate, 33P-ATP, MEK1 substrate); settings: read-out: Biochemical IC50 B-Raf
# Method in brief: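 Radiometric filter-binding assay with B-Raf delta1-415 at a level giving 50% turnover, MEK1 substrate and 33P-ATP (12.5 μCi/ml) in 20 mM Mops pH 7.0 with Mg/Mn, 1 h at room temperature. Inhibitor dilution series from 10 μM; EDTA-stopped reactions captured on phosphocellulose filters, counted by scintillation for IC50.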
# Chain of B-Raf delta1-415 (P15056 416-766): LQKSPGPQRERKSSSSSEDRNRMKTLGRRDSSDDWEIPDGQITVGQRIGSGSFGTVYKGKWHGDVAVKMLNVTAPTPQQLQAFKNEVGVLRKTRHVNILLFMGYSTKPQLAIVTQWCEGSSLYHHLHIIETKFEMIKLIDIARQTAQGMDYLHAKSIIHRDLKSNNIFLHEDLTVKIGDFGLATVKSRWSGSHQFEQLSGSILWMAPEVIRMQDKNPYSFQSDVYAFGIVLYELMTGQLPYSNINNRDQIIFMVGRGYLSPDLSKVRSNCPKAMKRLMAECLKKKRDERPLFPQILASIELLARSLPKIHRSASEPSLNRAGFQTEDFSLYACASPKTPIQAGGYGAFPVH
"IC50 ([1]; Homo sapiens, HT-29, 72 h) [nM]",IC50 [2] [nM],IC50 [1] [nM],SMILES
< 1000,< 100,–,"COn1c(=O)c(-c2c(F)cccc2Cl)cc2cnc(Nc3cc(C(=O)N(C)CCO)n(C)c3)nc21 [Compound 193, 6-(2-Chloro-6-fluorophenyl)-2-(5-N-(2-hydroxyethyl)-N-methyl-aminocarbonyl-1-methyl-pyrrol-3-yl)-amino-8-methoxy-pyrido[2,3-d]pyrimidin-7-one]"
< 1000,< 100,–,"COn1c(=O)c(-c2c(Cl)cccc2Cl)cc2cnc(Nc3csc(C(=O)N4CCN(C)CC4)c3)nc21 [Compound 142, 6-(2,6-Dichlorophenyl)-8-methoxy-2-(5-(4-methylpiperazino)carbonyl-thiophen-3-yl)-amino-pyrido[2,3-d]pyrimidin-7-one]"
< 1000,< 500,–,"O=c1c(-c2c(F)cccc2Cl)cc2cnc(Nc3ccccc3)nc2n1OCc1cccnc1 [Compound 153, 6-(2-Chloro-6-fluorophenyl)-2-phenylamino-8-(pyrid-3-ylmethyl)oxy-pyrido[2,3-d]pyrimidin-7-one]"
< 1000,< 100,–,"COn1c(=O)c(-c2c(Cl)cccc2Cl)cc2cnc(Nc3ccc(CN4CC[C@H](O)C4)cc3)nc21 [Compound 180, 6-(2,6-Dichlorophenyl)-2-(4-(3-(S)-hydroxypyrrolidinomethyl)phenyl)-amino-8-methoxy-pyrido[2,3-d]pyrimidin-7-one]"
< 1000,< 500,–,"COn1c(=O)c(-c2c(Cl)cccc2Cl)cc2cnc(Nc3ccc(C(C)=O)cc3)nc21 [Compound 192, 2-(4-Acetylphenyl)amino-6-(2,6-dichlorophenyl)-8-methoxy-pyrido[2,3-d]pyrimidin-7-one]"
< 1000,< 100,–,"COn1c(=O)c(-c2c(Cl)cccc2Cl)cc2cnc(Nc3cc(C(=O)N4CCNCC4)n(C)c3)nc21 [Compound 185, 6-(2,6-Dichlorophenyl)-8-methoxy-2-(5-piperazinocarbonyl-1-methyl-pyrrol-3-yl)-amino-pyrido[2,3-d]pyrimidin-7-one]"
< 1000,< 100,–,"COn1c(=O)c(-c2c(F)cccc2Cl)cc2cnc(Nc3ccc(N4CCN(C(C)C)CC4)cc3)nc21 [Compound 203, 6-(2-Chloro-6-fluorophenyl)-8-methoxy-2-(4-(4-(1-methylethyl)piperazino)phenyl)-amino-pyrido[2,3-d]pyrimidin-7-one]"
< 1000,< 100,–,O=c1c(-c2c(F)cccc2Cl)cc2cnc(Nc3ccc(N4CCOCC4)cc3)nc2n1OC[C@H]1CCNC1 [Compound 155]
–,< 1000,< 10000,"COn1c(=O)c(-c2c(Cl)cccc2Cl)cc2cnc(Nc3nc(C(=O)N(C)CCO)cs3)nc21 [Compound 138, 6-(2,6-Dichlorophenyl)-8-methoxy-2-(4-N-(2-hydroxyethyl)-N-methyl-aminocarbonyl-thiazol-2-yl)-amino-pyrido[2,3-d]pyrimidin-7-one]"
< 1000,< 500,–,"COn1c(=O)c(-c2c(Cl)cccc2Cl)cc2cnc(Nc3ccc(Cc4n[nH]c(C)n4)cc3)nc21 [Compound 151, 6-(2,6-Dichlorophenyl)-8-methoxy-2-(4-(5-methyl-1,2,4-triazol-3-yl)methylphenyl)-amino-pyrido[2,3-d]pyrimidin-7-one]"
< 1000,< 500,–,"COn1c(=O)c(-c2c(F)cccc2Cl)cc2cnc(Nc3cc(C(=O)N4CCOCC4)n(C)c3)nc21 [Compound 197, 6-(2-Chloro-6-fluorophenyl)-8-methoxy-2-(5-morpholinocarbonyl-1-methyl-pyrrol-3-yl)-amino-pyrido[2,3-d]pyrimidin-7-one]"
< 1000,< 100,–,"COn1c(=O)c(-c2c(Cl)cccc2Cl)cc2cnc(Nc3ccc(CC#N)cc3)nc21 [Compound 97, 2-(4-cyanomethylphenyl)-amino-6-(2,6-dichlorophenyl)-8-methoxy-pyrido[2,3-d]pyrimidin-7-one]"
< 1000,< 100,–,"COn1c(=O)c(-c2c(Cl)cccc2Cl)cc2cnc(Nc3cc(C(=O)N(C)CCO)n(C)c3)nc21 [Compound 116, 6-(2,6-Dichlorophenyl)-2-(5-(N-(2-hydroxyethyl)-N-methyl-amino)carbonyl-1-methyl-pyrrol-3-yl)-amino-8-methoxy-pyrido[2,3-d]pyrimidin-7-one]"
< 1000,< 500,–,COn1c(=O)c(-c2c(Cl)cccc2Cl)cc2cnc(Nc3ccc(CN4CC(O)C4)cc3)nc21 [Compound 168]
< 10000,< 500,–,"COn1c(=O)c(-c2c(Cl)cccc2Cl)cc2cnc(Nc3cccc(O)c3)nc21 [Compound 219, 6-(2,6-Dichlorophenyl)-2-(3-hydroxyphenyl)-amino-8-methoxy-pyrido[2,3-d]pyrimidin-7-one]"
< 1000,< 500,–,"CCOn1c(=O)c(-c2c(Cl)cccc2Cl)cc2cnc(Nc3cc(C(=O)N(C)CCOC)n(C)c3)nc21 [Compound 171, 6-(2,6-Dichlorophenyl)-8-ethoxy-2-(5-N-(2-methoxyethyl)-N-methyl-aminocarbonyl-1-methyl-pyrrol-3-yl)-amino-pyrido[2,3-d]pyrimidin-7-one]"
< 1000,< 500,–,"COn1c(=O)c(-c2c(Cl)cccc2Cl)cc2cnc(Nc3cc(C(=O)N4CCN(C)CC4)n(C)c3)nc21 [Compound 163, 6-(2,6-Dichlorophenyl)-8-methoxy-2-(5-(4-methylpiperazino)carbonyl-1-methyl-pyrrol-3-yl)-amino-pyrido[2,3-d]pyrimidin-7-one]"
